# Tests used:
# Lethal factor [1] = molecular target: T1, Lethal factor (Bacillus anthracis, UniProt P15917); test: Inhibition of Bacillus anthracis Lethal factor after 10 mins by mobility shift protease assay using 8 uM FITC as substrate
# T1 sequence (P15917 whole entry): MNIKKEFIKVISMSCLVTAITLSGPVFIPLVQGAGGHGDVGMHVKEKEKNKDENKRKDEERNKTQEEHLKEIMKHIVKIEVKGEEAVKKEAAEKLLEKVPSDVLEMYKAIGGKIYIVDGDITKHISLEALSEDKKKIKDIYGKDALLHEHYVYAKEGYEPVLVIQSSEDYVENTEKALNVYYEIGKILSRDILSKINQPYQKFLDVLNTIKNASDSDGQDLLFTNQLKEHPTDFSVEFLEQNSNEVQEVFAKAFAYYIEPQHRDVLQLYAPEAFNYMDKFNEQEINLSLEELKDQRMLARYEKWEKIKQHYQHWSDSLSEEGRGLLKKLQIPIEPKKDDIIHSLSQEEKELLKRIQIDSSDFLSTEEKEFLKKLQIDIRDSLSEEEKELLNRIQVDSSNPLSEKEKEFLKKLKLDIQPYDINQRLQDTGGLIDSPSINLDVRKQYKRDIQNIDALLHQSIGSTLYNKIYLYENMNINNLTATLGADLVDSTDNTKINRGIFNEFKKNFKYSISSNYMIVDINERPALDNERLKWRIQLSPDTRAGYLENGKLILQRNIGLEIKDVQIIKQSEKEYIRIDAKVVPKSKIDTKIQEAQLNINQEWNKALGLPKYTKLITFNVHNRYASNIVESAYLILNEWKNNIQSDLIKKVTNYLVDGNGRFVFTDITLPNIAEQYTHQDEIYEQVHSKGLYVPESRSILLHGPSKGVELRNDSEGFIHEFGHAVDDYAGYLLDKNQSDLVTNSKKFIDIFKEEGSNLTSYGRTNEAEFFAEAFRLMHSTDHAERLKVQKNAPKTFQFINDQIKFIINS
# Lethal factor [2] = molecular target: T1, Lethal factor; test: Inhibition of Bacillus anthracis Lethal factor after 5 mins by FRET assay
SMILES,IC50 (Lethal factor [1]),IC50 (Lethal factor [2])
Cc1cc(S(=O)(=O)N[C@H](C)C(=O)NO)ccc1F,0.5 µM,1.6 µM
Cc1cc(S(=O)(=O)N(C)[C@H](C)C(=O)NO)ccc1F,9.6 µM,37 µM
Cc1cc(S(=O)(=O)N(Cc2cc(F)cc(F)c2)[C@H](C)C(=O)NO)ccc1F,7 µM,26 µM
Cc1cc(S(=O)(=O)N(Cc2ccc(F)cc2)[C@H](C)C(=O)NO)ccc1F,11 µM,29 µM
Cc1cc(S(=O)(=O)N(Cc2ccccc2F)[C@H](C)C(=O)NO)ccc1F,9.5 µM,33 µM
Cc1cc(S(=O)(=O)N(Cc2c(F)cccc2F)[C@H](C)C(=O)NO)ccc1F,13 µM,42 µM
Cc1cc(S(=O)(=O)N(CCOCc2ccccc2)[C@H](C)C(=O)NO)ccc1F,14 µM,57 µM
Cc1cc(S(=O)(=O)N(Cc2ccc(CNC(=O)OC(C)(C)C)cc2)[C@H](C)C(=O)NO)ccc1F,3.4 µM,15 µM
Cc1cc(S(=O)(=O)N(Cc2ccc(CCNC(=O)OC(C)(C)C)cc2)[C@H](C)C(=O)NO)ccc1F,2.1 µM,6.9 µM
Cc1cc(S(=O)(=O)N(CCCCCCCC(=O)OC(C)(C)C)[C@H](C)C(=O)NO)ccc1F,3.2 µM,8 µM
Cc1cc(S(=O)(=O)N(C(C)C)[C@H](C)C(=O)NO)ccc1F,> 100 µM,> 100 µM
Cc1cc(S(=O)(=O)N(Cc2ccc(N)cc2)[C@H](C)C(=O)NO)ccc1F,6.4 µM,29 µM
Cc1cc(S(=O)(=O)N(Cc2cccc(CN)c2)[C@H](C)C(=O)NO)ccc1F,1.7 µM,10 µM
Cc1cc(S(=O)(=O)N(Cc2ccc(CCN)cc2)[C@H](C)C(=O)NO)ccc1F,1.2 µM,8.9 µM
Cc1cc(S(=O)(=O)N(CCCCCCN)[C@H](C)C(=O)NO)ccc1F,1.1 µM,4.4 µM
Cc1cc(S(=O)(=O)N(CCCCCN)[C@H](C)C(=O)NO)ccc1F,1.3 µM,8.2 µM
Cc1cc(S(=O)(=O)N(CCCCN)[C@H](C)C(=O)NO)ccc1F,1.8 µM,7.4 µM
Cc1cc(S(=O)(=O)N(CCCN)[C@H](C)C(=O)NO)ccc1F,3.7 µM,12 µM
Cc1cc(S(=O)(=O)N(CCCCCCCC(=O)O)[C@H](C)C(=O)NO)ccc1F,47 µM,91 µM
CC(=O)NCc1ccc(CN([C@H](C)C(=O)NO)S(=O)(=O)c2ccc(F)c(C)c2)cc1,3.5 µM,16 µM
CC(=O)NCc1cccc(CN([C@H](C)C(=O)NO)S(=O)(=O)c2ccc(F)c(C)c2)c1,4.7 µM,15 µM
CC(=O)NCCc1ccc(CN([C@H](C)C(=O)NO)S(=O)(=O)c2ccc(F)c(C)c2)cc1,3.2 µM,17 µM
CC(=O)NCCCCCCN([C@H](C)C(=O)NO)S(=O)(=O)c1ccc(F)c(C)c1,3.9 µM,14 µM
CC(=O)NCCCCCN([C@H](C)C(=O)NO)S(=O)(=O)c1ccc(F)c(C)c1,4.3 µM,19 µM
CC(=O)NCCCN([C@H](C)C(=O)NO)S(=O)(=O)c1ccc(F)c(C)c1,30 µM,117 µM
CNC(=O)CCCCCCCN([C@H](C)C(=O)NO)S(=O)(=O)c1ccc(F)c(C)c1,9.3 µM,19 µM
CC(=O)Nc1cccc(CN([C@H](C)C(=O)NO)S(=O)(=O)c2ccc(F)c(C)c2)c1,4.8 µM,21 µM
Cc1cc(S(=O)(=O)N(Cc2ccc(CN)cc2)[C@H](C)C(=O)NO)ccc1F,1.3 µM,5.6 µM
